The values below come from PMC10865860 (mBio, 2023).

The assay deals with SARS-CoV-2 Omicron subvariant XBB.1.16. Details: species or system K18-hACE2 mice. The conditions noted are these: mouse, in vivo.

With `COc1ccccc1C1CC1COC(=O)NC(CC(C)C)C(=O)NC(CC1CCNC1=O)C(O)S(=O)(=O)O` (stereo not shown) [11d], the “body weight loss compared to vehicle” value is “reduced weight losses”; the “lung edema average score” value is below 0.5; the “viral titers in nasal wash, nasal turbinate, and lungs compared to vehicle” value was “significantly lower”. Under “ip”, the “fatality by 14 days after virus infection” value is 20%.
